The nature of data set [1]: Stability on incubation with human plasma at 37°C. It counts as in vitro ADME. Particulars: after 4 hours.
Data set [2] can be described thus: Oral bioavailability studies (absorption, brain:plasma partition).
The subject of another data set is anesthetized dogs. As to the kind of experiment: Cardiovascular effects in anesthetized dogs during combined blockade of alpha and beta adrenergic receptors. On the procedure: (§1) Beagles of either sex are anesthetized with sodium thiopental 15 mg/kg + sodium barbital 200 mg/kg + 60 mg of sodium pentobarbital i.v. The trachea is intubated with a cuffed endotracheal tube and connected to a Harvard Respirator Pump set at 20 ml/stroke and 10 strokes/minute. The right femoral artery and vein are exposed and cannulated with polyethylene tubing for measurement of arterial blood pressure and i.v. administration of drugs, respectively. The duration of these experiments is two hours postdrug when drug is administered i.v. and three hours when administered i.d.
The arterial cannula is connected to a Statham P23Gb transducer. Left ventricular cardiac catheterization is accomplished by introducing a Millar microtip pressure transducer into the left carotid artery and advancing it to the left ventricle. The cannula is connected to a Millar TC-100 transducer control unit which is connected to a Beckman voltage/pressure pulse coupler. Ventricular pressure and its first derivative dP/dt are measured simultaneously by wiring the signal output from the left ventricular pressure tracing into a differentiator. […] The proximal lumen of this catheter is in the right atrium when the distal lumen and thermistor have been properly placed in the pulmonary artery. […] Cardiac output is determined by injecting 5 ml of iced 5% dextrose in water into the proximal site (right atrium) and then measuring the temperature change in the pulmonary artery. Using the Stewart-Hamilton equation, the cardiac output can be determined by integrating the area under the thermodilution curve with an Edwards Cardiac Output Computer (model 9520). Heart rate is determined with a Beckman Cardiotach which sums the pressure waves from the pulse pressure curve of the arterial pressure. Lead II EKG is recorded. […] The measurement of these parameters provides information so that the following may be either measured directly or calculated: • 1. […] Central Venous Pressure - CVP measured as right atrial pressure (RAP) mmHg or cmH2O. • 9. […]

Another data set relates to anesthetized dog. The data set can be described thus: Acute cardiovascular hemodynamic evaluation in the anesthetized dog. Particulars: for CO: cardiac output; for HR: heart rate; for LVEDP: left ventricular end-diastolic pressure; for MAP: mean arterial blood pressure; for RAP: right atrial pressure. As for the experimental part:
(Details of test methods used for determining acute cardiovascular hemodynamic effects are presented following the Conclusion section).
as §1
The arterial cannula is connected to a Statham P23Gb transducer. Left ventricular cardiac catheterization is accomplished by introducing a Millar microtip pressure transducer into the left carotid artery and advancing it to the left ventricle. The cannula is connected to a Millar TC-100 transducer control unit which is connected to a Beckman voltage/pressure pulse coupler. Ventricular pressure and its first derivative dP/dt are measured simultaneously by wiring the signal output from the left ventricular pressure tracing into a differentiator. […] The proximal lumen of this catheter is in the right atrium when the distal lumen and thermistor have been properly placed in the pulmonary artery. The signal outputs from the proximal and distal sites are connected to Statham P23BB transducers to measure right atrial pressure (RAP) and pulmonary artery pressure (PAP). Cardiac output is determined by injecting 5 ml of iced 5% dextrose in water into the proximal site (right atrium) and then measuring the temperature change in the pulmonary artery. Using the Stewart-Hamilton equation, the cardiac output can be determined by integrating the area under the thermodilution curve with an Edwards Cardiac Output Computer (model 9520). Heart rate is determined with a Beckman Cardiotach which sums the pressure waves from the pulse pressure curve of the arterial pressure. Lead II EKG is recorded. […] The measurement of these parameters provides information so that the following may be either measured directly or calculated: • 1. Mean Arterial Blood Pressure - MAP (mmHg) • 2. Heart Rate - HR • 3. Cardiac Output - CO (1/minute) • 4. Total Peripheral Resistance - TPR • 5. Cardiac Index - CI (CO/m^2) • 6. Stroke Volume - SV (ml/beat) • 7. Stroke Work - SW (gm-m/beat) • 8. Central Venous Pressure - CVP measured as right atrial pressure (RAP) mmHg or cmH2O. • 9. Left Ventricular End Diastolic Pressure - LVEDP (mmHg) • 10. Rate of Rise of Ventricular Pressure - dP/dt/Pmax This parameter is a better estimate of the contractile state of the myocardium that dP/ dt alone since the former is relatively independent of the loading conditions of the heart (sec^-1). • 11. Plumonary Artery Pressure - PAP (mmHg) • 12. Electrocardiogram - EKG

A further data set deals with butyrylcholinesterase (Homo sapiens, UniProt P06276). To be noted: relative to physostigmine.
A further data set addresses T1, rat brain AChE (Rattus norvegicus, UniProt P37136).
T1 sequence (P37136 32-614): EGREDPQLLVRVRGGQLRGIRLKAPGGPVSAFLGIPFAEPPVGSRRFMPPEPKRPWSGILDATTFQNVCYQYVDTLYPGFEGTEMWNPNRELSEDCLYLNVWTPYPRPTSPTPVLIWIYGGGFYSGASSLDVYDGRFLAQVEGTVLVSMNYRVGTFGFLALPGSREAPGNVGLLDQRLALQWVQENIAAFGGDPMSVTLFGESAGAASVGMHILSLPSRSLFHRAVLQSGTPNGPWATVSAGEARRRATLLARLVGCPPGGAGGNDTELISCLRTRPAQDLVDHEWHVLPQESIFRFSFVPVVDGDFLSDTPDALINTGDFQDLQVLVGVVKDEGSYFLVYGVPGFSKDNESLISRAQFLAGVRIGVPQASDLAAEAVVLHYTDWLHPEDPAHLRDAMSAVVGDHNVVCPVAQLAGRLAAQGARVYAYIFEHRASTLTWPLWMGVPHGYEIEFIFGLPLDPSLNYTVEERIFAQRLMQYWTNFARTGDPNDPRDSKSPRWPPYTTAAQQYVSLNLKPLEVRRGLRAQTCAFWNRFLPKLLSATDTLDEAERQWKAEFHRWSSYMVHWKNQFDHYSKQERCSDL
On the procedure:
The method described below was used in this invention for assaying cholinesterase activity. This is a modification of the method of Ellman et al., Biochem. Pharmacol. 7, 98 (1961).
• A. Reagents - • 1. 0.05 M Phosphate buffer, pH 7.2 • (a) 6.85 g NaH2PO4•H2O/100 ml distilled H2O • (b) 13.40 g Na2HPO4•7H2O/100 ml distilled H2O • (c) add (a) to (b) until pH reaches 7.2 • (d) Dilute 1:10 • 2. Substrate in buffer • (a) 198 mg acetylthiocholine chloride (10 mM) • (b) q.s to 100 ml with 0.05 M phosphate buffer, pH 7.2 (reagent 1) • 3. DTNB in buffer • (a) 19.8 mg 5,5-dithiobisnitrobenzoic acid (DTNB) (0.5 mM) • (b) q.s. to 100 ml with 0.05 M phosphate buffer, pH 7.2 (reagent 1) • 4. A 2 mM stock solution of the test drug is made up in a suitable solvent and q.s. to volume with 0.5 mM DTNB (reagent 3). Drugs are serially diluted (1:10) such that the final concentration (in cuvette) is 10^-4 M and screened for activity. If active, IC50 values are determined from the inhibitory activity of subsequent concentrations. • B. Tissue Preparation- Male Wistar rats are decapitated, brains rapidly removed, copora striata disected free, weighed and homogenized in 19 volumes (approximately 7 mg protein/ml) of 0.05 M phosphate buffer, pH 7.2 using a Potter-Elvehjem homogenizer. A 25 microliter aliquot of the homogenate is added to 1.0 milliter vehicle or various concentrations of the test drug and preincubated for 10 minutes at 37°C. • C. Assay- Enzyme activity is measured with the Beckman DU-50 spectrophotometer. This method can be used for IC50 determinations and for measuring kinetic constants. Instruments Settings • Kinetics Soft-Pac Module #598273 (10) • Program #6 Kindata: • Source - Vis • Wavelength - 412 nm • Sipper - none • Cuvettes - 2 ml cuvettes using auto 6-sampler • Blank - 1 for each substrate concentration • Interval time - 15 seconds (15 or 30 seconds for kinetics) • Total time - 5 minutes (5 or 10 minutes for kinetics) • Plot - yes • Span - autoscale • Slope - increasing • Results - yes (gives slope) • Factor - 1
Reagents are added to the blank and sample cuvettes as follows: Blank: 0.8 ml Phosphate Buffer/DTNB 0.8 ml Buffer/Substrate Control: 0.8 ml Phosphate Buffer/DTNB/Enzyme 0.8 ml Phosphate Buffer/Substrate Drug: 0.8 ml Phosphate Buffer/DTNB/Drug/ Enzyme 0.8 ml Phosphate Buffer/Substrate Blank values are determined for each run to control for non-enzymatic hydrolysis of substrate and these values are automatically subtracted by the kindata program available on kinetics soft-pac module. This program also calculates the rate of absorbance change for each cuvette.
Substrate concentration is 10 mM diluted 1:2 in assay yielding final concentration of 5 mM.

Data set [3] deals with [^3H]norepinephrine release. As to the kind of experiment: [3H]norepinephrine release in vitro. The format is biochemical, Rat. To be noted: Compound A at 100 µM.
The mark [4] stands for this setting: 0.01 mg/kg/min i.v. during alpha and beta receptor blockade.
Setting [5] is: 0.01 mg/kg/min. i.v., anesthetized dog.
Where [6] appears, read: 0.1 mg/kg/min. i.v., anesthetized dog.

Where two headings read alike, the source gives them in different places.

butyrylcholinesterase, sequence (P06276 29-602): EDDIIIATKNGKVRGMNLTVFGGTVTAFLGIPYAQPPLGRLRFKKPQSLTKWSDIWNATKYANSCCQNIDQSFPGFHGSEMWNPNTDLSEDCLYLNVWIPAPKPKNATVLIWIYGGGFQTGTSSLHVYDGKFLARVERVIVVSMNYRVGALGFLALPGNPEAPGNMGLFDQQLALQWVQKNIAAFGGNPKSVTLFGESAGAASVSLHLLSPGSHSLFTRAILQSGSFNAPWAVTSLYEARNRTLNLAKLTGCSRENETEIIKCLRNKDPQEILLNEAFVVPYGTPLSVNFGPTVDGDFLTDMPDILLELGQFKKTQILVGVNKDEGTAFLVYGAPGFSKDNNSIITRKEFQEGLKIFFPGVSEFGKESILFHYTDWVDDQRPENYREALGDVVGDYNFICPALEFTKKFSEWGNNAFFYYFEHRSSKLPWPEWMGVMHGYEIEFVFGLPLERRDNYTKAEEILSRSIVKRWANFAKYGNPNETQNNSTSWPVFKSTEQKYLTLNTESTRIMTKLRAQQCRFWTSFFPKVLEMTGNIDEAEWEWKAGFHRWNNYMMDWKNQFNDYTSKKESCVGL

Take `CNC(=O)Oc1ccc2c(c1)[C@]1(C)CCN(C)[C@@H]1N2C` [physostigmine]: the “compound remaining after incubation with human plasma” value in data set [1] was “completely destroyed”. Also, the “oral absorption / bioavailability” value in data set [2] is “so poorly bioavailable by the oral route that pharmacokinetic data was not available”. Besides, in the data set on anesthetized dogs (setting [4]), the “mortality (dogs)” value is reported as 3 out of 3 and the time to mortality lay in the range of 17 to 29 min. Besides, the mortality result in the data set on anesthetized dog (0.01 mg/kg/min i.v., intact alpha and beta adrenergic receptors) was “no mortality”. Moreover, in the data set on anesthetized dog (setting [5]), the TRP was -34%, the dP/dT was -32%, the CO is on record as -23% and the HR was -49%. In addition, in the data set on anesthetized dog (setting [5]), the LVEDP result is “+5mmHG”, the MAP is on record as -49% and the RAP entry is recorded as “+5mmHG”. Besides, in the data set with anesthetized dog (setting [6]), the ECG result is “A-V block inc. T wave”, the TRP is -48%, the dP/dT is -80% and the CO was -79%. In the data set on anesthetized dog (setting [6]), the HR is reported as -82%, the LVEDP result was “+8mmHG”, the MAP is listed as -78% and the RAP result was “+8mmHG”.

On to “(3aS-cis)-1,2,3,3a,8,8a-hexahydro-1,3a,8-trimethylpyrrolo[2,3-b]indol-5-ol,(1,2,3,4-tetrahydroisoquinolinyl)carbamate [Compound A]”, for which the “compound remaining after incubation with human plasma” value in data set [1] is listed as “approximately 70%”. Besides, on butyrylcholinesterase, the “potency as an inhibitor of butyrylcholinesterase, times less potent than physostigmine” value is “approximately 34 times”. Moreover, the “accumulation effect on repeated administration” value at rat brain AChE (20 mg/kg for four days in rats) is “no accumulation effect”. In addition, the “inhibition of rat brain AChE ex vivo” value against rat brain AChE (20 mg/kg, 4 hours after oral administration) is “significantly inhibitied”. In addition, at rat brain AChE (20 mg/kg, 6 hours after oral administration), the “inhibition of rat brain AChE ex vivo” value is given as “significantly inhibitied”. The “inhibition of rat brain AChE ex vivo” value on rat brain AChE (20 mg/kg, 24 hours after oral administration) was “not statistically significant”. At rat brain AChE (after oral administration), the “inhibition of rat brain AChE ex vivo” value is listed as “significant inhibition”. Also, in data set [2], the “oral absorption / bioavailability” value is on record as “rapidly absorbed orally”. Further, in the data set on anesthetized dogs (0.1 mg/kg/min i.v. during alpha and beta adrenergic blockade), the “cardiac and hemodynamic effects” value is “moderate decreases in blood pressure and cardiac output”. For the same compound, in data set [3], the “[^3H]norepinephrine release in vitro” value is “stimulated”. Besides, in the data set on anesthetized dog (setting [5]), the TRP is listed as -18%, the dP/dT entry is reported as “+37%”, the HR was -12% and the MAP is listed as -12%. Besides, in the data set with anesthetized dog (setting [6]), the TRP entry was “+61%”, the dP/dT entry was “+38%”, the CO result is on record as “+40%” and the HR is -13%. Besides, the MAP result in the data set on anesthetized dog (setting [6]) is “+54%”.

The values are drawn from patent EP0538248B1, “TETRAHYDROISOQUINOLINYLCARBAMATES OF 1,2,3,3A,8,8A-HEXAHYDRO-1,3A,8-TRIMETHYLPYRROLO [2,3-B]INDOLE” (priority 1990, dated 1992).
